Results taken from patent US10660877B2 (BRISTOL-MYERS SQUIBB COMPANY, priority 2016, dated 2020).
pIC50: −log10 of the molar value. Where two headings read alike, the source gives them in different places.

Columns and labels:
human TLR7 = human TLR7 (Homo sapiens (Human), UniProt Q9NYK1); assay: TLR7 inhibition reporter assay (HEK-Blue cells, SEAP reporter, gardiquimod stimulation); type: cell-based; settings: HEK-Blue cells overexpressing human TLR7, gardiquimod 7.5 μM
human TLR8 = human TLR8 (Homo sapiens (Human), UniProt Q9NR97); assay: TLR8 inhibition reporter assay (HEK-Blue cells, SEAP reporter, R848 stimulation);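 note: compounds tested from 0.05 nM to 50 µM, 22 h at 37 °C, SEAP measured with HEK-Blue Detection, inhibition relative to agonist plus DMSO versus a known inhibitor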
human TLR8, sequence (Q9NR97 27-1041): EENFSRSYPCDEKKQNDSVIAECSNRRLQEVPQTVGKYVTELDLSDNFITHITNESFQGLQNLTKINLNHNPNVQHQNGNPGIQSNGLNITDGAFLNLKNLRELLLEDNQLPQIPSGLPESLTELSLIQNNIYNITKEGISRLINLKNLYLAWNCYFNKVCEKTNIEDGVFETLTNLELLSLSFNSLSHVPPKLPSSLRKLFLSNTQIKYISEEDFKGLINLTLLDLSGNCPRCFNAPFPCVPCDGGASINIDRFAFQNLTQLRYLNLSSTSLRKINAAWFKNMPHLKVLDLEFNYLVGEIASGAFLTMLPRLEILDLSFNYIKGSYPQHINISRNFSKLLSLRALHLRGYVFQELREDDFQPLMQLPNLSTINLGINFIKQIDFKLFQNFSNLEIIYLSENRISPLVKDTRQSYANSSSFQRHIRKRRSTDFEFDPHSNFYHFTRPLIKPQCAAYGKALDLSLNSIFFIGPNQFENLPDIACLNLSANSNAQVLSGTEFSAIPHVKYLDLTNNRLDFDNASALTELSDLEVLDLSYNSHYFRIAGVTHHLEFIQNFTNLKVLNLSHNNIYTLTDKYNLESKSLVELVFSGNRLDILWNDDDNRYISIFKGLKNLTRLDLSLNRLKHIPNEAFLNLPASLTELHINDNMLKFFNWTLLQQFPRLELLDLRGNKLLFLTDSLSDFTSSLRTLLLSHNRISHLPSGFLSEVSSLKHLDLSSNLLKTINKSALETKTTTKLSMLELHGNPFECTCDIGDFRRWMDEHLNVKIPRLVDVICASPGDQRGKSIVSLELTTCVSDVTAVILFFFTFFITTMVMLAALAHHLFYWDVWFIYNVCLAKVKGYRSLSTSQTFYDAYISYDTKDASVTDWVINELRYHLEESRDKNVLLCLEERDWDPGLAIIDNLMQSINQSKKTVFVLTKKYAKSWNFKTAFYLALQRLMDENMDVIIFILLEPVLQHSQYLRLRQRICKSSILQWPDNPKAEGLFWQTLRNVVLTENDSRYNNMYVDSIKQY

human TLR9 = human TLR9 (Homo sapiens (Human), UniProt Q9NR96); assay: TLR9 inhibition reporter assay (HEK-Blue cells, SEAP reporter, ODN2006 stimulation);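 note: compounds tested over 0.05 nM to 50 µM, 22 h incubation, inhibition taken as SEAP signal drop from agonist plus DMSO wells toward a known inhibitor control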
human TLR9, sequence (Q9NR96 26-1032): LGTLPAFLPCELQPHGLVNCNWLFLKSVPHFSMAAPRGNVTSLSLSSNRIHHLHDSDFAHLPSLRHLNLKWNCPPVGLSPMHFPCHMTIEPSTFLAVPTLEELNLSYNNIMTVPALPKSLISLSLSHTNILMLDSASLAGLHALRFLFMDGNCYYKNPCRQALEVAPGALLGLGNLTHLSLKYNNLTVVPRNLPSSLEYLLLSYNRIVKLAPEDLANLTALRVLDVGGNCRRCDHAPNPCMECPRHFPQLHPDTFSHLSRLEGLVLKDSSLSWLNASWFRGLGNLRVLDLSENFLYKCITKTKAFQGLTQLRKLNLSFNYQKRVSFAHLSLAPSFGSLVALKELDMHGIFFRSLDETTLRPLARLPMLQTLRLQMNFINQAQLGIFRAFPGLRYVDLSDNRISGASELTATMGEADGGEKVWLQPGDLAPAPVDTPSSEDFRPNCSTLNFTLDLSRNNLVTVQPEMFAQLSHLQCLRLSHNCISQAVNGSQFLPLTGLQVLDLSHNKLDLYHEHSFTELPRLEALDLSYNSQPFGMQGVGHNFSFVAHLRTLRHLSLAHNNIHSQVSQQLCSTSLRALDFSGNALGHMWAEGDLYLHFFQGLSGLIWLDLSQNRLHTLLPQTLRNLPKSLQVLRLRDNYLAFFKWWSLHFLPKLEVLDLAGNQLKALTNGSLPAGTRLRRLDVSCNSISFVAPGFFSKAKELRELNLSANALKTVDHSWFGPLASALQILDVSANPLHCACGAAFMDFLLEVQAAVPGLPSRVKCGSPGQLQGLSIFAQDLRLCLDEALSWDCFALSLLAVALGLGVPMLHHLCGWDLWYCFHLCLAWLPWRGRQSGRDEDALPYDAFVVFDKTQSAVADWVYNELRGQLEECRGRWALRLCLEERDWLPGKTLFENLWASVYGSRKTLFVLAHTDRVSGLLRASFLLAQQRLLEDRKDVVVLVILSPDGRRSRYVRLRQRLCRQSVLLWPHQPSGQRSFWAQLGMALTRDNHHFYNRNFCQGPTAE

[1] = read-out: TLR8 IC50, HEK-Blue cells overexpressing human TLR8, R848 15.9 μM
[2] = read-out: TLR9 IC50, HEK-Blue cells overexpressing human TLR9, ODN2006 5 nM

human TLR7, sequence (Q9NYK1 27-1049): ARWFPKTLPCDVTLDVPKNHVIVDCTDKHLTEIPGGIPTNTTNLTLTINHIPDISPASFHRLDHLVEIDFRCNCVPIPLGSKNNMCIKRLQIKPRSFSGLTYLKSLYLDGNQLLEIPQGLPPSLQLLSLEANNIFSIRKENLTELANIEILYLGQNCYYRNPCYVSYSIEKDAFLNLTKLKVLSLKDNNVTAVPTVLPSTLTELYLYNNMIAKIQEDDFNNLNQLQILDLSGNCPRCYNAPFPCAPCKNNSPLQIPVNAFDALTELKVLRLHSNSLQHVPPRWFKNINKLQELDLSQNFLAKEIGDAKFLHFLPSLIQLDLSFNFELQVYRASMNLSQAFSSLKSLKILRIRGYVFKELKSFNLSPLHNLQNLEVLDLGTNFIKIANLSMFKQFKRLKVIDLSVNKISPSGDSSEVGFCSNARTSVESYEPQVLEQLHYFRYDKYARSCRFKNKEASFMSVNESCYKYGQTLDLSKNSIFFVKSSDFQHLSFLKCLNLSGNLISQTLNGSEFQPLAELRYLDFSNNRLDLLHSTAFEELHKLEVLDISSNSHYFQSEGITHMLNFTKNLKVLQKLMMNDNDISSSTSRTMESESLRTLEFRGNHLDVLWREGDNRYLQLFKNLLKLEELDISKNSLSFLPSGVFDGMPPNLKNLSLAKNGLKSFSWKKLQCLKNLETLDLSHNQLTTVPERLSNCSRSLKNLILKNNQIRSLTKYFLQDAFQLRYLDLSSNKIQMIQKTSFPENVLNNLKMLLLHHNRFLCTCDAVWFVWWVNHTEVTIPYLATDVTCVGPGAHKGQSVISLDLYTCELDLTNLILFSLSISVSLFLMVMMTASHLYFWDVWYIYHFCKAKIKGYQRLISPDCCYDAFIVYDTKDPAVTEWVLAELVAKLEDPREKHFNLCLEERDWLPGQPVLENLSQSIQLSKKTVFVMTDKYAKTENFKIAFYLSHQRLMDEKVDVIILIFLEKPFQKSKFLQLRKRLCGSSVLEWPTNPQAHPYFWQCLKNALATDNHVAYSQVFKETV

Row | SMILES | pIC50 (human TLR7) | pIC50 (human TLR8; [1]) | pIC50 (human TLR9; [2]) | pIC50 (human TLR8; TLR8 IC50, HEK-Blue cells overexpressing human TLR8, R848 15.9 μM) | pIC50 (human TLR9; TLR9 IC50, HEK-Blue cells overexpressing human TLR9, ODN2006 5 nM)
1 | Cc1cc(-c2[nH]c3ccc(C4CCN(C(=O)CCNS(=O)(=O)c5ccccc5)CC4)cc3c2C(C)C)cc(C)n1 [Example 120, N-(3-(4-(2-(2,6-dimethylpyridin-4-yl)-3-isopropyl-1H-indol-5-yl)piperidin-1-yl)-3-oxopropyl)benzenesulfonamide] | 7.90 | 6.80 | 4.79 | – | –
2 | Cc1cc(-c2[nH]c3ccc(C4CCN(C(=O)c5c(C)n[nH]c5C)CC4)cc3c2C(C)C)cc(C)n1 [Example 121, (3,5-dimethyl-1H-pyrazol-4-yl)(4-(2-(2,6-dimethylpyridin-4-yl)-3-isopropyl-1H-indol-5-yl)piperidin-1-yl)methanone] | 7.52 | 7.01 | 4.97 | – | –
3 | Cc1cc(-c2[nH]c3ccc(C4CCN(C(=O)c5cccn(C6CC6)c5=O)CC4)cc3c2C(C)C)cc(C)n1 [Example 123, 1-cyclopropyl-3-(4-(2-(2,6-dimethylpyridin-4-yl)-3-isopropyl-1H-indol-5-yl)piperidine-1-carbonyl)pyridin-2(1H)-one] | 7.69 | 6.94 | 4.44 | – | –
4 | Cc1cc(-c2[nH]c3ccc(C4CCN(C(=O)CCn5nc(C)cc5C)CC4)cc3c2C(C)C)cc(C)n1 [Example 125, 3-(3,5-dimethyl-1H-pyrazol-1-yl)-1-(4-(2-(2,6-dimethylpyridin-4-yl)-3-isopropyl-1H-indol-5-yl)piperidin-1-yl)propan-1-one] | 7.32 | 6.65 | 4.34 | – | –
5 | Cc1cc(-c2[nH]c3ccc(C4CCN(C(=O)CC5CC(=O)NC(=O)N5)CC4)cc3c2C(C)C)cc(C)n1 (stereo not drawn) [Example 129, 6-(2-(4-(2-(2,6-dimethylpyridin-4-yl)-3-isopropyl-1H-indol-5-yl)piperidin-1-yl)-2-oxoethyl)dihydropyrimidine-2,4(1H,3H)-dione] | 7.74 | 7.16 | 4.49 | – | –
6 | Cc1cc(-c2[nH]c3ccc(C4CCN(C(=O)CC5C(=O)NC(=O)N5C)CC4)cc3c2C(C)C)cc(C)n1 (stereo not drawn) [Example 130, 5-(2-(4-(2-(2,6-dimethylpyridin-4-yl)-3-isopropyl-1H-indol-5-yl)piperidin-1-yl)-2-oxoethyl)-1-methylimidazolidine-2,4-dione] | 7.53 | 7.13 | 4.93 | – | –
7 | Cc1cc(C(=O)N2CCC(c3ccc4[nH]c(-c5cc(C)nc(C)c5)c(C(C)C)c4c3)CC2)c(=O)[nH]n1 [Example 135, 4-(4-(2-(2,6-dimethylpyridin-4-yl)-3-isopropyl-1H-indol-5-yl)piperidine-1-carbonyl)-6-methylpyridazin-3 (2H)-one] | 7.48 | 7.00 | 4.88 | – | –
8 | Cc1cc(-c2[nH]c3ccc(C4CCN(C(=O)Cc5cc(C)nn5C)CC4)cc3c2C(C)C)cc(C)n1 [Example 136, 2-(1,3-dimethyl-1H-pyrazol-5-yl)-1-(4-(2-(2,6-dimethylpyridin-4-yl)-3-isopropyl-1H-indol-5-yl)piperidin-1-yl)ethan-1-one] | 7.63 | 6.87 | 4.52 | – | –
9 | Cc1cc(-c2[nH]c3ccc(C4CCN(C(=O)CC(=O)Nc5nccs5)CC4)cc3c2C(C)C)cc(C)n1 [Example 142, 3-(4-(2-(2,6-dimethylpyridin-4-yl)-3-isopropyl-1H-indol-5-yl)piperidin-1-yl)-3-oxo-N-(thiazol-2-yl)propanamide] | 7.74 | 7.02 | < 4.30 | – | –
10 | Cc1cc(-c2[nH]c3ccc(C4CCN(C(=O)c5ccc6n(c5=O)CCC6)CC4)cc3c2C(C)C)cc(C)n1 [Example 144, 6-(4-(2-(2,6-dimethylpyridin-4-yl)-3-isopropyl-1H-indol-5-yl)piperidine-1-carbonyl)-2,3-dihydroindolizin-5(1H)-one] | 7.70 | 6.77 | < 4.30 | – | –
11 | Cc1cc(-c2[nH]c3ccc(C4CCN(C(=O)c5ccc6ccccn6c5=O)CC4)cc3c2C(C)C)cc(C)n1 [Example 145, 3-(4-(2-(2,6-dimethylpyridin-4-yl)-3-isopropyl-1H-indol-5-yl)piperidine-1-carbonyl)-4H-quinolizin-4-one] | 7.54 | 6.46 | < 4.30 | – | –

The remaining molecules from weak to strong by pIC50 (human TLR7), led by results:

Row | pIC50 (human TLR7) | pIC50 (human TLR8; [1]) | pIC50 (human TLR9; [2]) | pIC50 (human TLR8; TLR8 IC50, HEK-Blue cells overexpressing human TLR8, R848 15.9 μM) | pIC50 (human TLR9; TLR9 IC50, HEK-Blue cells overexpressing human TLR9, ODN2006 5 nM) | SMILES
12 | 7.91 | 7.21 | < 4.30 | – | – | Cc1cc(-c2[nH]c3ccc(C4CCN(C(=O)C5(C(N)=O)CC5)CC4)cc3c2C(C)C)cc(C)n1 [Example 133, 1-(4-(2-(2,6-dimethylpyridin-4-yl)-3-isopropyl-1H-indol-5-yl)piperidine-1-carbonyl)cyclopropane-1-carboxamide]
13 | 7.92 | 7.11 | 4.76 | – | – | Cc1cc(-c2[nH]c3ccc(C4CCN(C(=O)c5c(C)nn(C)c5C)CC4)cc3c2C(C)C)cc(C)n1 [Example 131, (4-(2-(2,6-dimethylpyridin-4-yl)-3-isopropyl-1H-indol-5-yl)piperidin-1-yl)(1,3,5-trimethyl-1H-pyrazol-4-yl)methanone]
14 | 7.94 | 7.04 | 4.46 | – | – | CC(=O)N(C)CCC(=O)N1CCC(c2ccc3[nH]c(-c4cc(C)nc(C)c4)c(C(C)C)c3c2)CC1 [Example 134, N-(3-(4-(2-(2,6-dimethylpyridin-4-yl)-3-isopropyl-1H-indol-5-yl)piperidin-1-yl)-3-oxopropyl)-N-methylacetamide]
15 | 8.09 | 7.41 | 5.75 | – | – | Cc1cc(-c2[nH]c3ccc(C4CCN(C(=O)Cc5cn(C)cn5)CC4)cc3c2C(C)C)cc(C)n1 [Example 137, 1-(4-(2-(2,6-dimethylpyridin-4-yl)-3-isopropyl-1H-indol-5-yl)piperidin-1-yl)-2-(1-methyl-1H-imidazol-4-yl)ethan-1-one]
16 | 8.24 | – | – | 7.32 | 5.05 | Cc1cc(-c2[nH]c3ccc(C4CCN(C(=O)Cc5cc(N)n[nH]5)CC4)cc3c2C(C)C)cc(C)n1 [Example 139, 2-(3-amino-1H-pyrazol-5-yl)-1-(4-(2-(2,6-dimethylpyridin-4-yl)-3-isopropyl-1H-indol-5-yl)piperidin-1-yl)ethan-1-one]
17 | 8.32 | 7.22 | 4.40 | – | – | Cc1cc(-c2[nH]c3ccc(C4CCN(C(=O)c5cn(C)nc5C)CC4)cc3c2C(C)C)cc(C)n1 [Example 141, (1,3-dimethyl-1H-pyrazol-4-yl)(4-(2-(2,6-dimethylpyridin-4-yl)-3-isopropyl-1H-indol-5-yl)piperidin-1-yl)methanone]
18 | 8.38 | 7.04 | 4.33 | – | – | Cc1cc(-c2[nH]c3ccc(C4CCN(C(=O)c5cnn(C)c5)CC4)cc3c2C(C)C)cc(C)n1 [Example 132, (4-(2-(2,6-dimethylpyridin-4-yl)-3-isopropyl-1H-indol-5-yl)piperidin-1-yl)(1-methyl-1H-pyrazol-4-yl)methanone]
19 | 8.41 | 7.81 | 6.14 | – | – | Cc1cc(-c2[nH]c3ccc(C4CCN(C(=O)CCN5CCOCC5)CC4)cc3c2C(C)C)cc(C)n1 [Example 128, 1-(4-(2-(2,6-dimethylpyridin-4-yl)-3-isopropyl-1H-indol-5-yl)piperidin-1-yl)-3-morpholinopropan-1-one]
20 | 8.72 | 8.00 | 6.40 | – | – | Cc1cc(-c2[nH]c3ccc(C4CCN(C(=O)CCn5ccnc5C)CC4)cc3c2C(C)C)cc(C)n1 [Example 124, 1-(4-(2-(2,6-dimethylpyridin-4-yl)-3-isopropyl-1H-indol-5-yl)piperidin-1-yl)-3-(2-methyl-1H-imidazol-1-yl)propan-1-one]
